Patent US9689040B2, “Selective inhibitors of tumor-initiating cells” (Children's Medical Center Corporation, priority 2011, dated 2017)
Read-outs that look alike come from different tables or passages of the source.

How the values were obtained:
TGS transcripts = conditions: Instance ID 6709, cited from earlier work
HMLER cells = assay: qRT-PCR of TGS transcripts after TSA treatment; format: cell-based, human; conditions: 1 μM TSA, 24 hr
Method: (§1) The CMAP data predicted that TSA would suppress expression of 52 TGS transcripts by ≧1.8-fold (Table 6). We measured the change in expression of the top 11 of these transcripts in BPLER and HMLER cells treated with TSA.
(§2) qRT-PCR analysis was performed as described^41. Briefly, total RNA was extracted with TRIZOL (Invitrogen) and cDNA prepared from 600-900 ng total RNA using TH[…] kit (Invitrogen) as per the manufacturer's instructions. 2.5 ul of diluted cDNA (1:20) was used as template for qPCR using POWER SYBR-GREEN MASTER MIX (Applied Biosystems) and BIORAD C1000 THERMAL CYCLER (Biorad). Primer sequences are available upon request. Relative CT values were normalized to […]-actin and converted to a linear scale using the −ΔCT method.

BPLER cells [1] = assay: qRT-PCR of TGS transcripts after TSA treatment; format: cell-based, human; conditions: 1 μM TSA, 24 hr
Method: as §1, §2

BPLER cells [2] = assay: Cell viability after drug treatment (CellTiterGlo / Trypan-Blue); format: cell-based, human; conditions: increasing doses, 24 hr

CC(/C=C/C(=O)NO)=C\[C@@H](C)C(=O)c1ccc(N(C)C)cc1 [TSA, Trichostatin A]
Amplitude (TGS transcripts; BUB1, probe set 215509_s_at): −0.84
Amplitude (TGS transcripts; C7orf25 /// PSMA2, probe set 221573_at): −0.7
Amplitude (TGS transcripts; C12orf10, probe set 218220_at): −0.5
Amplitude (TGS transcripts; C19orf29, probe set 215954_s_at): −0.49
Amplitude (TGS transcripts; CANX, probe set 208852_s_at): −0.55
Amplitude (TGS transcripts; CANX, probe set 208853_s_at): −0.81
Amplitude (TGS transcripts; CCNA2, probe set 203418_at): −0.83
Amplitude (TGS transcripts; CCNA2, probe set 213226_at): −0.63
Amplitude (TGS transcripts; CDC5L, probe set 209055_s_at): −1.19
Amplitude (TGS transcripts; CDK13, probe set 207318_s_at): −0.87
Amplitude (TGS transcripts; CDK13, probe set 207319_s_at): −0.79
Amplitude (TGS transcripts; CDK17, probe set 206474_at): −0.74
Amplitude (TGS transcripts; CDK17, probe set 221918_at): −0.66
Amplitude (TGS transcripts; DDX19A /// DDX19B, probe set 202576_s_at): −0.73
Amplitude (TGS transcripts; DHX8, probe set 203334_at): −0.45
Amplitude (TGS transcripts; DNAJC11, probe set 215792_s_at): −0.47
Amplitude (TGS transcripts; DYSF, probe set 218660_at): −0.43
Amplitude (TGS transcripts; FYCO1, probe set 218204_s_at): −0.5
Amplitude (TGS transcripts; GAPDH, probe set AFFX-HUMGAPDH/M33197_5_at): −1.17
Amplitude (TGS transcripts; GAPDH, probe set AFFX-HUMGAPDH/M33197_M_at): −0.62
Amplitude (TGS transcripts; HIPK3, probe set 210148_at): −0.46
Amplitude (TGS transcripts; LSM2, probe set 209449_at): −0.44
Amplitude (TGS transcripts; MCL1, probe set 200796_s_at): −1.46
Amplitude (TGS transcripts; MFSD5, probe set 212861_at): −0.77
Amplitude (TGS transcripts; MGAT2, probe set 203101_s_at): −0.67
Amplitude (TGS transcripts; MTA2, probe set 203444_s_at): −0.74
Amplitude (TGS transcripts; NAA38, probe set 219119_at): −0.47
Amplitude (TGS transcripts; NDC80, probe set 204162_at): −1.07
Amplitude (TGS transcripts; NME3, probe set 204862_s_at): −0.6
Amplitude (TGS transcripts; NUP205, probe set 212247_at): −0.65
Amplitude (TGS transcripts; PDCD4, probe set 202731_at): −1.07
Amplitude (TGS transcripts; PFKL, probe set 201102_s_at): −0.67
Amplitude (TGS transcripts; POLR2F, probe set 209511_at): −0.43
Amplitude (TGS transcripts; PRC1, probe set 218009_s_at): −0.67
Amplitude (TGS transcripts; PSMA1, probe set 201676_x_at): −0.4
Amplitude (TGS transcripts; PSMA1, probe set 210759_s_at): −0.74
Amplitude (TGS transcripts; PSMA1, probe set 211746_x_at): −0.45
Amplitude (TGS transcripts; PSMA2, probe set 201317_s_at): −0.41
Amplitude (TGS transcripts; PSMA3, probe set 201532_at): −0.63
Amplitude (TGS transcripts; PSMB4, probe set 202243_s_at): −0.43
Amplitude (TGS transcripts; PSMC1, probe set 204219_s_at): −0.53
Amplitude (TGS transcripts; PSMC3, probe set 201267_s_at): −1.66
Amplitude (TGS transcripts; PSMD7, probe set 201705_at): −1.01
Amplitude (TGS transcripts; RAN, probe set 200750_s_at): −0.48
Amplitude (TGS transcripts; RBM22, probe set 218134_s_at): −0.75
Amplitude (TGS transcripts; RBMX, probe set 213762_x_at): −0.58
Amplitude (TGS transcripts; SCD, probe set 211162_x_at): −0.92
Amplitude (TGS transcripts; SCD, probe set 211708_s_at): −0.83
Amplitude (TGS transcripts; SH3GL3, probe set 211565_at): −0.64
Amplitude (TGS transcripts; SNW1, probe set 215424_s_at): −1.16
Amplitude (TGS transcripts; TMED3, probe set 208837_at): −0.42
Amplitude (TGS transcripts; TMEM14B, probe set 221452_s_at): −0.48
Amplitude (TGS transcripts; TNPO1, probe set 207657_x_at): −0.42
Amplitude (TGS transcripts; TNPO1, probe set 209226_s_at): −0.68
Amplitude (TGS transcripts; USP39, probe set 217829_s_at): −0.56
Amplitude (TGS transcripts; probe set 200749_at (gene symbol —)): −0.5
expression of the top 11 predicted TGS transcripts (HMLER cells): All but two of these also had significantly reduced expression
expression of the top 11 predicted TGS transcripts (BPLER cells [1]): significantly decreased
sensitivity of BPLER relative to HMLER cells (viability) (BPLER cells [2]): selectively lethal for BPLER compared to HMLER
BPE viability (BPE cells; at the indicated dose): no effect on BPE viability
combination with bortezomib: cytotoxicity in untransformed BPE cells (BPE cells; in vitro): not cytotoxic
